# Measured values taken from patent US8614201B2 (Janssen Pharmaceutica NV, priority 2009, dated 2013).
# Target: Human TRPA1 (Homo sapiens, UniProt O75762)
# Experiment: Assay 1: In vitro cellular testing of TRPA1 modulation (CHO-TREx, Fluo-3 calcium fluorescence, AITC agonist)
# Assay type: cell-based
# Set-up: expressed in transfected cells; host or cells: CHO-TREx cells (Invitrogen), vector pcDNA4/TO
# Conditions: CHO-TREx cells expressing human TRPA1; Fluo-3 fluorescence (FLIPR/Tetra); agonist 15 μM allyl isothiocyanate (AITC); 30 minute antagonist incubation
# Outline: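 Antagonist potency is the 50% reduction of the AITC (15 μM) calcium response, Hill-fitted against no-antagonist and 10 μM ruthenium red controls. Fluo-3-loaded (4 μM) CHO-TREx cells with tetracycline-inducible human TRPA1 got compound in HEPES saline pH 7.4 for 30 min, usually from 10 μM in three-fold dilutions.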
# Chain of Human TRPA1 (O75762 whole entry): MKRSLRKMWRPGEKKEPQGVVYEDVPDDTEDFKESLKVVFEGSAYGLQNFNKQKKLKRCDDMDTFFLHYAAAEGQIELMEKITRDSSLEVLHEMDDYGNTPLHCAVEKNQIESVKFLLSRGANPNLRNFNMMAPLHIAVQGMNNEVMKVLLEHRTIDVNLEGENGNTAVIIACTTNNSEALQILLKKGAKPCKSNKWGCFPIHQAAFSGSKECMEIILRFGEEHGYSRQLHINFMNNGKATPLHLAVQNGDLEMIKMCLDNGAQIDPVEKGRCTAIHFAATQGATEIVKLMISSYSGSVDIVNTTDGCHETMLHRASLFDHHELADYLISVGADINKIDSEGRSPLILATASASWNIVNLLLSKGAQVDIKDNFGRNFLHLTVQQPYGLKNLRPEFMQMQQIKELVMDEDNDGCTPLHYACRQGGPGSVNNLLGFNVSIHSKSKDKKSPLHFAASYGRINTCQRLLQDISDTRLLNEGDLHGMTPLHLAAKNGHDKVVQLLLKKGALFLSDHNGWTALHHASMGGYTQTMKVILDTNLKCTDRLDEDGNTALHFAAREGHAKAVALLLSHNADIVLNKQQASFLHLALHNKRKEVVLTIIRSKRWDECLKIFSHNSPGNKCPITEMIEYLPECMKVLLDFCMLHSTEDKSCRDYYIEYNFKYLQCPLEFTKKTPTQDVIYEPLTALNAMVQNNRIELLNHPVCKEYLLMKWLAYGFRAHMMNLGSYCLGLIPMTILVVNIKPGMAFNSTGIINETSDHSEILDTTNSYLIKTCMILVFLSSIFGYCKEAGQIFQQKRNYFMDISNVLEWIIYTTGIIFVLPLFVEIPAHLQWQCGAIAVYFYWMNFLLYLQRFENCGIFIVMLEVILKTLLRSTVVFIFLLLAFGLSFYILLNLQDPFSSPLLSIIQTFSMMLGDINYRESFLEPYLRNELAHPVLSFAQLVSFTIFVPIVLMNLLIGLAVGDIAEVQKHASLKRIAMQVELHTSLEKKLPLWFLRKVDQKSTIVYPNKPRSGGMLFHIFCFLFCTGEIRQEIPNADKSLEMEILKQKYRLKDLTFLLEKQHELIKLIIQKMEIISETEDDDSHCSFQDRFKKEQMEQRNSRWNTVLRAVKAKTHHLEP
row,Structure (SMILES),IC50
1,"CC1CCCN1c1cc(CNC(=O)[C@@H]2CC(F)(F)CN2S(=O)(=O)c2ccc(F)cc2)cc(-c2ccc(C(F)(F)F)cc2)n1 (stereo partly drawn) [Example 396, 4,4-Difluoro-1-[(4-fluorophenyl)sulfonyl]-N-({2-(2-methylpyrrolidin-1-yl)-6-[4-(trifluoromethyl)phenyl]pyridin-4-yl}methyl)-L-prolinamide]",1790 nM
2,"CC1CCCN1c1cc(CNC(=O)[C@@H]2CC(F)(F)CN2S(=O)(=O)c2ccc(Cl)s2)cc(-c2ccc(C(F)(F)F)cc2)n1 (stereo partly drawn) [Example 397, 1-[(5-Chlorothiophen-2-yl)sulfonyl]-4,4-difluoro-N-({2-(2-methylpyrrolidin-1-yl)-6-[4-(trifluoromethyl)phenyl]pyridin-4-yl}methyl)-L-prolinamide]",2950 nM
3,"CC(Nc1cc(CNC(=O)[C@@H]2CC(F)(F)CN2S(=O)(=O)c2ccc(F)cc2)cc(-c2ccc(C(F)(F)F)cc2)n1)c1cccnc1 (stereo partly drawn) [Example 398, 4,4-Difluoro-1-[(4-fluorophenyl)sulfonyl]-N-({2-[(1-pyridin-3-ylethyl)amino]-6-[4-(trifluoromethyl)phenyl]pyridin-4-yl}methyl)-L-prolinamide]",7090 nM
4,"CC(Nc1cc(CNC(=O)[C@@H]2CC(F)(F)CN2S(=O)(=O)c2ccc(F)cc2)cc(-c2ccc(C(F)(F)F)cc2)n1)c1ccncc1 (stereo partly drawn) [Example 401, 4,4-Difluoro-1-[(4-fluorophenyl)sulfonyl]-N-({2-[(1-pyridin-4-ylethyl)amino]-6-[4-(trifluoromethyl)phenyl]pyridin-4-yl}methyl)-L-prolinamide]",2520 nM
5,"CC(Nc1cc(CNC(=O)[C@@H]2CCCN2S(=O)(=O)c2ccc(F)cc2)cc(-c2ccc(C(F)(F)F)cc2)n1)c1ccncc1 (stereo partly drawn) [Example 402, 1-[(4-Fluorophenyl)sulfonyl]-N-({2-[(1-pyridin-4-ylethyl)amino]-6-[4-(trifluoromethyl)phenyl]pyridin-4-yl}methyl)-L-prolinamide]",594 nM
6,"CC(Nc1cc(CNC(=O)[C@@H]2CCCN2S(=O)(=O)c2ccc(F)cc2)cc(-c2ccc(C(F)(F)F)cc2)n1)c1ccccn1 (stereo partly drawn) [Example 408, 1-[(4-Fluorophenyl)sulfonyl]-N-({2-[(1-pyridin-2-ylethyl)amino]-6-[4-(trifluoromethyl)phenyl]pyridin-4-yl}methyl)-L-prolinamide]",54 nM
7,"CC(Nc1cc(CNC(=O)[C@@H]2CC(F)(F)CN2S(=O)(=O)c2ccc(F)cc2)cc(-c2ccc(C(F)(F)F)cc2)n1)c1ccccc1 (stereo partly drawn) [Example 410, 4,4-Difluoro-1-[(4-fluorophenyl)sulfonyl]-N-({2-[(1-phenylethyl)amino]-6-[4-(trifluoromethyl)phenyl]pyridin-4-yl}methyl)-L-prolinamide]",1260 nM
8,"CC(Nc1cc(CNC(=O)[C@@H]2CC(F)(F)CN2S(=O)(=O)c2ccc(Cl)s2)cc(-c2ccc(C(F)(F)F)cc2)n1)c1ccccn1 (stereo partly drawn) [Example 415, 1-[(5-Chlorothiophen-2-yl)sulfonyl]-4,4-difluoro-N-({2-[(1-pyridin-2-ylethyl)amino]-6-[4-(trifluoromethyl)phenyl]pyridin-4-yl}methyl)-L-prolinamide]",570 nM
9,"CC(Nc1cc(CNC(=O)[C@@H]2CC(F)(F)CN2S(=O)(=O)c2ccc(F)cc2)cc(-c2ccc(C(F)(F)F)cc2)n1)c1ccccn1 (stereo partly drawn) [Example 416, 4,4-Difluoro-1-[(4-fluorophenyl)sulfonyl]-N-({2-[(1-pyridin-2-ylethyl)amino]-6-[4-(trifluoromethyl)phenyl]pyridin-4-yl}methyl)-L-prolinamide]",1060 nM
10,"CC1CCCN1c1cc(CNC(=O)[C@@H]2C=CCN2S(=O)(=O)c2ccc(Cl)s2)cc(-c2ccc(C(F)(F)F)cc2)n1 (stereo partly drawn) [Example 417, (2S)-1-[(5-Chlorothiophen-2-yl)sulfonyl]-N-({2-(2-methylpyrrolidin-1-yl)-6-[4-(trifluoromethyl)phenyl]pyridin-4-yl}methyl)-2,5-dihydro-1H-pyrrole-2-carboxamide]",82 nM

# The next lines start with the values.
row,IC50,Structure (SMILES)
1,2610 nM,"CC(Nc1cc(CNC(=O)[C@@H]2CC(F)(F)CN2S(=O)(=O)c2ccc(Cl)s2)cc(-c2ccc(C(F)(F)F)cc2)n1)c1cccnc1 (stereo partly drawn) [Example 399, 1-[(5-Chlorothiophen-2-yl)sulfonyl]-4,4-difluoro-N-({2-[(1-pyridin-3-ylethyl)amino]-6-[4-(trifluoromethyl)phenyl]pyridin-4-yl}methyl)-L-prolinamide]"
2,1830 nM,"CC(Nc1cc(CNC(=O)[C@@H]2CC(F)(F)CN2S(=O)(=O)c2ccc(Cl)s2)cc(-c2ccc(C(F)(F)F)cc2)n1)c1ccncc1 (stereo partly drawn) [Example 400, 1-[(5-Chlorothiophen-2-yl)sulfonyl]-4,4-difluoro-N-({2-[(1-pyridin-4-ylethyl)amino]-6-[4-(trifluoromethyl)phenyl]pyridin-4-yl}methyl)-L-prolinamide]"
3,466 nM,"CC(Nc1cc(CNC(=O)[C@@H]2CCCN2S(=O)(=O)c2ccc(Cl)s2)cc(-c2ccc(C(F)(F)F)cc2)n1)c1ccncc1 (stereo partly drawn) [Example 403, 1-[(5-Chlorothiophen-2-yl)sulfonyl]-N-({2-[(1-pyridin-4-ylethyl)amino]-6-[4-(trifluoromethyl)phenyl]pyridin-4-yl}methyl)-L-prolinamide]"
4,1910 nM,"CC(Nc1cc(CNC(=O)[C@@H]2C=CCN2S(=O)(=O)c2ccc(Cl)s2)cc(-c2ccc(C(F)(F)F)cc2)n1)c1ccncc1 (stereo partly drawn) [Example 404, (2S)-1-[(5-Chlorothiophen-2-yl)sulfonyl]-N-({2-[(1-pyridin-4-ylethyl)amino]-6-[4-(trifluoromethyl)phenyl]pyridin-4-yl}methyl)-2,5-dihydro-1H-pyrrole-2-carboxamide]"
5,481 nM,"CC(Nc1cc(CNC(=O)[C@@H]2CCCN2S(=O)(=O)c2ccc(Cl)s2)cc(-c2ccc(C(F)(F)F)cc2)n1)c1cccnc1 (stereo partly drawn) [Example 405, 1-[(5-Chlorothiophen-2-yl)sulfonyl]-N-({2-[(1-pyridin-3-ylethyl)amino]-6-[4-(trifluoromethyl)phenyl]pyridin-4-yl}methyl)-L-prolinamide]"
6,833 nM,"CC(Nc1cc(CNC(=O)[C@@H]2C=CCN2S(=O)(=O)c2ccc(F)cc2)cc(-c2ccc(C(F)(F)F)cc2)n1)c1ccccc1 (stereo partly drawn) [Example 406, (2S)-1-[(4-Fluorophenyl)sulfonyl]-N-({2-[(1-phenylethyl)amino]-6-[4-(trifluoromethyl)phenyl]pyridin-4-yl}methyl)-2,5-dihydro-1H-pyrrole-2-carboxamide]"
7,185 nM,"CC(Nc1cc(CNC(=O)[C@@H]2C=CCN2S(=O)(=O)c2ccc(Cl)s2)cc(-c2ccc(C(F)(F)F)cc2)n1)c1ccccc1 (stereo partly drawn) [Example 407, (2S)-1-[(5-Chlorothiophen-2-yl)sulfonyl]-N-({2-[(1-phenylethyl)amino]-6-[4-(trifluoromethyl)phenyl]pyridin-4-yl}methyl)-2,5-dihydro-1H-pyrrole-2-carboxamide]"
8,64 nM,"CC(Nc1cc(CNC(=O)[C@@H]2CCCN2S(=O)(=O)c2ccc(Cl)s2)cc(-c2ccc(C(F)(F)F)cc2)n1)c1ccccn1 (stereo partly drawn) [Example 409, 1-[(5-Chlorothiophen-2-yl)sulfonyl]-N-({2-[(1-pyridin-2-ylethyl)amino]-6-[4-(trifluoromethyl)phenyl]pyridin-4-yl}methyl)-L-prolinamide]"
9,1430 nM,"CC(Nc1cc(CNC(=O)[C@@H]2CC(F)(F)CN2S(=O)(=O)c2ccc(Cl)s2)cc(-c2ccc(C(F)(F)F)cc2)n1)c1ccccc1 (stereo partly drawn) [Example 411, 1-[(5-Chlorothiophen-2-yl)sulfonyl]-4,4-difluoro-N-({2-[(1-phenylethyl)amino]-6-[4-(trifluoromethyl)phenyl]pyridin-4-yl}methyl)-L-prolinamide]"
10,1270 nM,"CC(Nc1cc(CNC(=O)[C@@H]2C=CCN2S(=O)(=O)c2ccc(F)cc2)cc(-c2ccc(C(F)(F)F)cc2)n1)c1ccncc1 (stereo partly drawn) [Example 412, (2S)-1-[(4-Fluorophenyl)sulfonyl]-N-({2-[(1-pyridin-4-ylethyl)amino]-6-[4-(trifluoromethyl)phenyl]pyridin-4-yl}methyl)-2,5-dihydro-1H-pyrrole-2-carboxamide]"
11,269 nM,"CC(Nc1cc(CNC(=O)[C@@H]2CCCN2S(=O)(=O)c2ccc(F)cc2)cc(-c2ccc(C(F)(F)F)cc2)n1)c1ccccc1 (stereo partly drawn) [Example 413, 1-[(4-Fluorophenyl)sulfonyl]-N-({2-[(1-phenylethyl)amino]-6-[4-(trifluoromethyl)phenyl]pyridin-4-yl}methyl)-L-prolinamide]"
12,57 nM,"CC(Nc1cc(CNC(=O)[C@@H]2CCCN2S(=O)(=O)c2ccc(Cl)s2)cc(-c2ccc(C(F)(F)F)cc2)n1)c1ccccc1 (stereo partly drawn) [Example 414, 1-[(5-Chlorothiophen-2-yl)sulfonyl]-N-({2-[(1-phenylethyl)amino]-6-[4-(trifluoromethyl)phenyl]pyridin-4-yl}methyl)-L-prolinamide]"
